The supplement of paper PMC10307832

Columns and labels:
Experiment in all cases: relative viability (nuclei count vs DMSO), 5 days (fraction); higher = more cells survive
NCI-H1666 = test system: NCI-H1666
Summary of the method: (§1)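 Lung cancer cell lines in 1536-well plates were dosed by pin tool the day after seeding, either with one drug alone or with a fixed anchor-drug dose plus five library-drug doses (not always all listed) in √10 steps. After 5 days, cells were fixed and their nuclei stained in one step (final 0.05% Triton X-100, 1% formaldehyde, 1 ug/ml Hoechst), then counted on 4× images. Relative viability is the nuclei count in treated wells divided by that in vehicle wells. Values are medians of duplicate plates.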

PC-3 [JPC-3] = test system: PC-3 [JPC-3]
Summary of the method: as §1

NCI-H650 = test system: NCI-H650
Summary of the method: as §1

NCI-H2023 = test system: NCI-H2023
Summary of the method: as §1

NCI-H2170 = test system: NCI-H2170
Summary of the method: as §1

NCI-H441 = test system: NCI-H441
Summary of the method: as §1

NCI-H1755 = test system: NCI-H1755
Summary of the method: as §1

NCI-H23 = test system: NCI-H23
Summary of the method: as §1

NCI-H1395 = test system: NCI-H1395
Summary of the method: as §1

LOU-NH91 = test system: LOU-NH91
Summary of the method: as §1

A-427 = test system: A-427
Summary of the method: as §1

LCLC-97TM1 = test system: LCLC-97TM1
Summary of the method: as §1

LU99A = test system: LU99A
Summary of the method: as §1

NCI-H2126 = test system: NCI-H2126
Summary of the method: as §1

NCI-H1793 = test system: NCI-H1793
Summary of the method: as §1

SK-LU-1 = test system: SK-LU-1
Summary of the method: as §1

NCI-H1915 = test system: NCI-H1915
Summary of the method: as §1

BEN = test system: BEN
Summary of the method: as §1

LXF-289 = test system: LXF-289
Summary of the method: as §1

NCI-H322M = test system: NCI-H322M
Summary of the method: as §1

NCI-H460 = test system: NCI-H460
Summary of the method: as §1

NCI-H1944 = test system: NCI-H1944
Summary of the method: as §1

HARA = test system: HARA
Summary of the method: as §1

Cc1cnc(-c2cnc(NCCNc3ccc(C#N)cn3)nc2-c2ccc(Cl)cc2Cl)[nH]1 + Nc1ncn([C@H]2C[C@H](O)[C@@H](CO)O2)c(=O)n1 [Decitabine] (partner 2 µM)
relative viability (NCI-H1666; first compound 0.08 µM): 0.759 | relative viability (NCI-H1666; first compound 0.253 µM): 0.713 | relative viability (NCI-H1666; first compound 0.8 µM): 0.618 | relative viability (NCI-H1666; first compound 2.53 µM): 0.844 | relative viability (PC-3 [JPC-3]; first compound 0.08 µM): 0.777 | relative viability (PC-3 [JPC-3]; first compound 0.253 µM): 0.825 | relative viability (PC-3 [JPC-3]; first compound 0.8 µM): 0.785 | relative viability (PC-3 [JPC-3]; first compound 2.53 µM): 0.791 | relative viability (NCI-H650; first compound 0.08 µM): 0.356 | relative viability (NCI-H650; first compound 0.253 µM): 0.339 | relative viability (NCI-H650; first compound 0.8 µM): 0.302 | relative viability (NCI-H650; first compound 2.53 µM): 0.329 | relative viability (NCI-H2023; first compound 0.08 µM): 0.232 | relative viability (NCI-H2023; first compound 0.253 µM): 0.195 | relative viability (NCI-H2023; first compound 0.8 µM): 0.241 | relative viability (NCI-H2023; first compound 2.53 µM): 0.228 | relative viability (NCI-H2170; first compound 0.08 µM): 0.481 | relative viability (NCI-H2170; first compound 0.8 µM): 0.484 | relative viability (NCI-H2170; first compound 2.53 µM): 0.406 | relative viability (NCI-H441; first compound 0.08 µM): 0.238 | relative viability (NCI-H441; first compound 0.8 µM): 0.251 | relative viability (NCI-H441; first compound 2.53 µM): 0.255 | relative viability (NCI-H1755; first compound 0.08 µM): 0.723 | relative viability (NCI-H1755; first compound 0.253 µM): 0.726 | relative viability (NCI-H1755; first compound 0.8 µM): 0.771 | relative viability (NCI-H1755; first compound 2.53 µM): 0.704 | relative viability (NCI-H23; first compound 0.08 µM): 0.382 | relative viability (NCI-H23; first compound 0.253 µM): 0.293 | relative viability (NCI-H23; first compound 0.8 µM): 0.323 | relative viability (NCI-H23; first compound 2.53 µM): 0.387 | relative viability (NCI-H1395; first compound 0.08 µM): 0.774 | relative viability (NCI-H1395; first compound 0.253 µM): 0.714 | relative viability (NCI-H1395; first compound 0.8 µM): 0.737 | relative viability (NCI-H1395; first compound 2.53 µM): 0.757 | relative viability (LOU-NH91; first compound 0.08 µM): 0.818 | relative viability (LOU-NH91; first compound 0.253 µM): 0.799 | relative viability (LOU-NH91; first compound 0.8 µM): 0.852 | relative viability (LOU-NH91; first compound 2.53 µM): 0.802 | relative viability (A-427; first compound 0.08 µM): 0.535 | relative viability (A-427; first compound 0.253 µM): 0.526 | relative viability (A-427; first compound 0.8 µM): 0.61 | relative viability (A-427; first compound 2.53 µM): 0.618 | relative viability (LCLC-97TM1; first compound 0.08 µM): 0.213 | relative viability (LCLC-97TM1; first compound 0.253 µM): 0.248 | relative viability (LCLC-97TM1; first compound 0.8 µM): 0.235 | relative viability (LCLC-97TM1; first compound 2.53 µM): 0.227 | relative viability (LU99A; first compound 0.08 µM): 0.954 | relative viability (LU99A; first compound 0.253 µM): 0.873 | relative viability (LU99A; first compound 0.8 µM): 0.938 | relative viability (LU99A; first compound 2.53 µM): 0.775 | relative viability (NCI-H2126; first compound 0.08 µM): 0.585 | relative viability (NCI-H2126; first compound 0.253 µM): 0.602 | relative viability (NCI-H2126; first compound 0.8 µM): 0.539 | relative viability (NCI-H2126; first compound 2.53 µM): 0.58 | relative viability (NCI-H1793; first compound 0.08 µM): 0.494 | relative viability (NCI-H1793; first compound 0.253 µM): 0.514 | relative viability (NCI-H1793; first compound 0.8 µM): 0.583 | relative viability (NCI-H1793; first compound 2.53 µM): 0.541 | relative viability (SK-LU-1; first compound 0.08 µM): 0.645 | relative viability (SK-LU-1; first compound 0.253 µM): 0.478 | relative viability (SK-LU-1; first compound 0.8 µM): 0.688 | relative viability (SK-LU-1; first compound 2.53 µM): 0.711 | relative viability (NCI-H1915; first compound 0.08 µM): 0.275 | relative viability (NCI-H1915; first compound 0.8 µM): 0.286 | relative viability (NCI-H1915; first compound 2.53 µM): 0.264 | relative viability (BEN; first compound 0.08 µM): 0.768 | relative viability (BEN; first compound 0.253 µM): 0.716 | relative viability (BEN; first compound 0.8 µM): 0.663 | relative viability (BEN; first compound 2.53 µM): 0.8 | relative viability (LXF-289; first compound 0.08 µM): 0.374 | relative viability (LXF-289; first compound 0.253 µM): 0.364 | relative viability (LXF-289; first compound 0.8 µM): 0.392 | relative viability (LXF-289; first compound 2.53 µM): 0.398 | relative viability (NCI-H322M; first compound 0.08 µM): 0.654 | relative viability (NCI-H322M; first compound 0.253 µM): 0.655 | relative viability (NCI-H322M; first compound 0.8 µM): 0.567 | relative viability (NCI-H322M; first compound 2.53 µM): 0.726 | relative viability (NCI-H460; first compound 0.08 µM): 0.537 | relative viability (NCI-H460; first compound 0.253 µM): 0.454 | relative viability (NCI-H460; first compound 0.8 µM): 0.54 | relative viability (NCI-H460; first compound 2.53 µM): 0.488 | relative viability (NCI-H1944; first compound 0.08 µM): 0.476 | relative viability (NCI-H1944; first compound 0.8 µM): 0.5 | relative viability (NCI-H1944; first compound 2.53 µM): 0.402 | relative viability (HARA; first compound 0.08 µM): 0.654 | relative viability (HARA; first compound 0.253 µM): 0.471 | relative viability (HARA; first compound 0.8 µM): 0.553 | relative viability (HARA; first compound 2.53 µM): 0.642
